Laboratory results: patent US20200078393A1, “COMPOSITION COMPRISING HYDROGEN GAS FOR SUPPRESSION OR PREVENTION OF CANCER METASTASIS” (MiZ Company Limited, priority 2018, published 2020)
Like-named read-outs stand apart in the source and are kept apart here.

Tested on: progressive prostatic cancer in stage 4 with confirmed bone metastasis

## [HH] [hydrogen gas, hydrogen]
About 1 month after suction started, hydrogen 6.6% by volume, 60 to 90 minutes/day, with bicalutamide, Flivas OD, initial 92.5
  PSA value: 12.74 ng/mL
About 2 months after suction started, with internal medicines, before the anticancer agent infusion
  PSA value: 7.53 ng/mL
About 12 months after suction started, visually inspected, combined therapy
  shade densities at the parts of bone metastasis, whole body scintigraphy: a half or less
About 12.5 months after suction started, with internal medicines, docetaxel infusions and hormone injections
  PSA value: 1.69 ng/mL
